# Measurements: PMC9712658, “Structural analysis of the 2-oxoglutarate binding site of the circadian rhythm linked oxygenase JMJD5” (Scientific Reports, 2022)
# Target: T1, full-length JMJD5 (aa 1–416, JMJD5^FL) (Homo sapiens, UniProt Q8N371)
# T1 construct: 10 µM full-length JMJD5 (aa 1–416); His6 (N); made in house; host or cells: Escherichia coli Rosetta2(DE3)-pLysS
# Assay: JMJD5 inhibition assay by MALDI-TOF MS (hydroxylation of RpS6_129-144 peptide)
# Assay type: biochemical
# Details: for IC50: 10 µM JMJD5^FL, 100 µM Fe(II), 400 µM ascorbate, 50 µM 2OG, 100 µM RpS6_129-144, inhibitor 0–10 mM, mean (n = 3) ± SD
# Excerpt: To explore inhibition involving orthosteric 2OG ligand binding in the JMJD5 2OG pocket, we initially screened a focused set of compounds comprising relatively close 2OG mimetics, tricarboxylic acid (TCA) cycle intermediates, hypoxia inducible factor (HIF) prolyl hydroxylase (PHD) inhibitors, and JmjC histone demethylase (KDM) inhibitors (Supplementary Fig. S1).
# […] Hydroxylation of RpS6 peptide was monitored by MALDI-TOF MS and intensity of hydroxylated peak was quantified to determine the extent of inhibition caused by inhibitor.
# T1 sequence (Q8N371 whole entry, the tested form may be a part): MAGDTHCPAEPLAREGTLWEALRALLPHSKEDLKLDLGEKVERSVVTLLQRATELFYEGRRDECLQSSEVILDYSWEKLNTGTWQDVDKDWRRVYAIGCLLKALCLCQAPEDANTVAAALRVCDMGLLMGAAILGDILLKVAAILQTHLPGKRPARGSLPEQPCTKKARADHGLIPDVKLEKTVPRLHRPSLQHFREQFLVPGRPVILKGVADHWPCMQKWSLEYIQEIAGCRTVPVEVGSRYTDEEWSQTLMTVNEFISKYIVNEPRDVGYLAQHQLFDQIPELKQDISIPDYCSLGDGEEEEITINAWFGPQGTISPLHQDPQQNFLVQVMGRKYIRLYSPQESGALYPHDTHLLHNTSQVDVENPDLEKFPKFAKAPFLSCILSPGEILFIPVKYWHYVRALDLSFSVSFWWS
structure (smiles),measurement,setting,value
"O=C(O)CNC(=O)C(=O)O [NOG, N-oxalylglycine]",IC50,,6 ± 1.4 µM
"O=C(O)c1ccc(O)c2ncccc12 [IOX1, 5-carboxy-8-hydroxyquinoline]",IC50,,96 ± 1.7 µM
"O=C(O)CC[C@@H](O)C(=O)O [D-2HG, D-2-hydroxyglutarate]",IC50,,1268 ± 1.5 µM
O=C(O)CCNc1cc(N2CCc3ccccc3CC2)nc(-c2ccccn2)n1 [GSK-J1],IC50,,67 ± 1.5 µM
O=C(O)CC(O)(CC(=O)O)C(=O)O [Citrate],IC50,,820 ± 1.8 µM
"O=C(O)CC[C@H](O)C(=O)O [L-2HG, L-2-hydroxyglutarate]",IC50,,340 ± 1.3 µM
O=C(O)CCC(=O)O [Succinate],IC50,,840 ± 1.4 µM
CN(C)CCCNC(=O)c1ccc(-c2cc(O)c3ncccc3c2)cc1 [ML-324],IC50,,15 ± 1.4 µM
Cc1nc(C(=O)NCC(=O)O)c(O)c2ccc(Oc3ccccc3)cc12 [FG4592],IC50,,239 ± 1.9 µM
O=C(O)CNC(=O)c1ncc(-c2cccc(F)c2)cc1O [AKB-6899],IC50,,288 ± 1.5 µM
O=C(O)CC(O)C(=O)O (stereo not shown) [Malate],IC50,,1604 ± 1.4 µM
O=C(O)CC(=O)C(=O)O [Oxaloacetate],IC50,,85 ± 1.4 µM
"O=C(O)c1ccnc(-c2cc(C(=O)O)ccn2)c1 [2.4-BPDCA, bipyridinyl-2,4-dicarboxylate]",IC50,,66 ± 1.5 µM
CC(=O)C(=O)O [Pyruvate],IC50,,500 ± 1.6 µM
CCN(CCN(C)C)C(=O)CNCc1cc(C(=O)O)ccn1 [KDM5-C49],IC50,,621 ± 1.4 µM
CN(C)NC(=O)CCC(=O)O [daminozide],JMJD5 inhibition (in words),"screen at 0.1, 1 and 10 mM and/or IC50 determination","Neither daminozide (a plant growth regulator that inhibits the JmjC KDM 2/7 oxygenases[56]), nor its structural derivative 7 appear to inhibit JMJD5"
